This is an account of results in patent US9828379B2 (priority 2013, dated 2017).

A word on the IC50: it is the concentration that gives 50% inhibition. The term inhibition denotes the drop in the measured response relative to a control, in per cent.

Test [1] has as its target T1, FAAH (Mus musculus, UniProt O08914).
T1 sequence (O08914 1-579): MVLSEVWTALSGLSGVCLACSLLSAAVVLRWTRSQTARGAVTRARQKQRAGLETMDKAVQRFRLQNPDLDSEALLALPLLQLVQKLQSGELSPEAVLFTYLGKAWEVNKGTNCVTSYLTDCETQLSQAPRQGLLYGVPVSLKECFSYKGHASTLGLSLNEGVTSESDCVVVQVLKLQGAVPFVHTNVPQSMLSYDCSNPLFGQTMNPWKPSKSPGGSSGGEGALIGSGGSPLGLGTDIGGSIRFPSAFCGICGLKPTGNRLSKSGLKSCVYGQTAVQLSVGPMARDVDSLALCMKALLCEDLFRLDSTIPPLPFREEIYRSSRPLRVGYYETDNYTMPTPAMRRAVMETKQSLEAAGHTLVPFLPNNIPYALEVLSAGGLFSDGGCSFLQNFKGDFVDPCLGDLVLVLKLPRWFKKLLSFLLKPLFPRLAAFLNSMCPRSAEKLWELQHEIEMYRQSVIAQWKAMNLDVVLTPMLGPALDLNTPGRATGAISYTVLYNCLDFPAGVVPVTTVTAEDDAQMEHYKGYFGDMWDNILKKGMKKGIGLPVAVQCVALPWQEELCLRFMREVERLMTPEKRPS
The test can be described thus: biochemical. The conditions noted are these: in vitro competitive ABPP.

Test [2] deals with T2, MAGL (Mus musculus, UniProt O35678).
T2 sequence (O35678 1-303): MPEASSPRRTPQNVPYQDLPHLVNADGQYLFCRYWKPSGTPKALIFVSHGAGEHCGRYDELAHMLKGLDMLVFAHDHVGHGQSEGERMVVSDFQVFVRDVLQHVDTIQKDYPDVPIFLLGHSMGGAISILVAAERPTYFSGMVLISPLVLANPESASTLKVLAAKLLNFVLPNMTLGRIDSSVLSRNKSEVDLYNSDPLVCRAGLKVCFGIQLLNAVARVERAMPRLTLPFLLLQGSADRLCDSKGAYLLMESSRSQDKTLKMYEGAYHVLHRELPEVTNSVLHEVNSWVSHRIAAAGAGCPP
The test can be described thus: biochemical. The conditions noted are these: mouse; in vitro competitive ABPP; read-out: Mouse (IC50 value, nM) MAGL.

For test [3], the target named is T1, FAAH. Nature of the test: In vitro competitive activity-based protein profiling (Table 2, % inhibition at 1 μM). Format: biochemical. The conditions noted are these: read-out: % Inhibition at 1 μM FAAH.
Test [4] has as its target T3, ABHD6 (Mus musculus, UniProt Q8R2Y0).
T3 sequence (Q8R2Y0 1-336): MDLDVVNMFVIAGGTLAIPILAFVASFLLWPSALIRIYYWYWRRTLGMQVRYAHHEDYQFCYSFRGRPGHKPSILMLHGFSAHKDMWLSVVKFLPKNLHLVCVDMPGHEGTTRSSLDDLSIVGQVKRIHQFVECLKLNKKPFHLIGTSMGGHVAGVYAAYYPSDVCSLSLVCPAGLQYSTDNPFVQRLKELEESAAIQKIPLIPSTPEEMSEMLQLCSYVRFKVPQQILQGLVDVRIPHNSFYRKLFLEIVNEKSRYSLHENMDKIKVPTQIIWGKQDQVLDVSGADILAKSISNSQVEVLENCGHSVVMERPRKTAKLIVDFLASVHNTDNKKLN
The test is described as above. Format: biochemical. To be noted: read-out: % Inhibition at 1 μM ABHD6.

The target in a further test is T4, Mouse brain MAGL (Mus musculus, UniProt O35678).
T4 construct: from tissue; host or cells: brain of wild-type C57Bl/6J mice dosed by oral gavage
T4 sequence (O35678 1-303): T2 sequence (O35678 1-303)
Nature of the test: Mouse brain proteomes from inhibitor treated mice (oral gavage, ABPP analysis). Format: in vivo. The conditions noted are these: p.o., sacrificed 4 h following administration. As for the experimental part: After 30 min, FP—Rh (1.0 μL, 50 μM in DMSO) was added and the mixture was incubated for another 30 min at 37° C. Reactions were quenched with SDS loading buffer (50 μL-4×) and run on SDS-PAGE. Following gel imaging, serine hydrolase activity was determined by measuring fluorescent intensity of gel bands corresponding to MAGL, ABHD6 and FAAH using ImageJ 1.43 u software.
Inhibitors were administered to wild-type C57Bl/6J by oral gavage in a vehicle of polyethylene glycol. Each animal was sacrificed 4 h following administration and brain proteomes were prepared and analyzed according to previously established methods (See Niphakis, M. J., et al. (2011) ACS Chem. Neurosci. and Long, J. Z., et al. Nat. Chem. Biol. 5:37-44).

Test [5] addresses T2, MAGL. The test can be described thus: In vitro competitive activity-based protein profiling (Table 2, % inhibition at 1 μM). Format: biochemical. The conditions noted are these: read-out: % Inhibition at 1 μM MAGL. The procedure: After 30 min, FP—Rh (1.0 μL, 50 μM in DMSO) was added and the mixture was incubated for another 30 min at 37° C. Reactions were quenched with SDS loading buffer (50 μL-4×) and run on SDS-PAGE.
Cell lysates were diluted with mock proteomes for use in competitive ABPP experiments.

For test [6], the target named is T3, ABHD6. Nature of the test: biochemical. The conditions noted are these: in vitro competitive ABPP.

For the compound `Cc1ccc(CN2CC3CN(C(=O)OC(C(F)(F)F)C(F)(F)F)CC3C2)c(-c2ccccc2)c1` (stereo not drawn) [Example 207, 1,1,1,3,3,3-hexafluoropropan-2-yl 5-((5-methyl-[1,1′-biphenyl]-2-yl)methyl)hexahydropyrrolo[3,4-c]pyrrole-2(1H)-carboxylate], the 50% inhibitory concentration (IC50) fell in the range of 1000 to 10000 nM on FAAH [1], 100 to 1000 nM on MAGL [2] and 1000 to 10000 nM on ABHD6 [6]. Moreover, the inhibition at 1 µM was below 25% at FAAH [3], below 25% at ABHD6 [4] and above 75% at MAGL [5]. The same compound registered an inhibition at 5 mg/kg on Mouse brain MAGL of at least 75%.
Regarding `CC(C)n1cc(CN2CC3CN(C(=O)OC(C(F)(F)F)C(F)(F)F)CC3C2)c(C2CCN(S(C)(=O)=O)CC2)n1` (stereo not drawn) [Example 57, 1,1,1,3,3,3-Hexafluoropropan-2-yl 5-[[3-(1-methanesulfonylpiperidin-4-yl)-1-(propan-2-yl)-1H-pyrazol-4-yl]methyl]-octahydropyrrolo[3,4-c]pyrrole-2-carboxylate], the 50% inhibitory concentration (IC50) was above 10000 nM at FAAH [1], below 100 nM on MAGL [2] and 1000 to 10000 nM on ABHD6 [6]. Besides, the values for the inhibition at 1 µM on FAAH [3], at ABHD6 [4] and at MAGL [5] were below 25%, 25 to 75% and above 75%, respectively. Also, the inhibition at 5 mg/kg against Mouse brain MAGL is at most 25%.
Consider `CCn1cc(CN2CC3CN(C(=O)OC(C(F)(F)F)C(F)(F)F)CC3C2)c(-c2cccc(N3CCOCC3)c2)n1` (stereo not drawn) [Example 65, 1,1,1,3,3,3-Hexafluoropropan-2-yl 5-([1-ethyl-3-[3-(morpholin-4-yl)phenyl]-1H-pyrazol-4-yl]methyl)-octahydropyrrolo[3,4-c]pyrrole-2-carboxylate], for which the results for the IC50 on FAAH [1], at MAGL [2] and on ABHD6 [6] were 1000 to 10000 nM, below 100 nM and 1000 to 10000 nM, respectively. Further, the inhibition at 1 µM was below 25% at FAAH [3], below 25% at ABHD6 [4] and above 75% at MAGL [5]. The inhibition at 5 mg/kg at Mouse brain MAGL is at most 25%.
In the case of `CCn1cc(CN2CC3CN(C(=O)OC(C(F)(F)F)C(F)(F)F)CC3C2)c(-c2cccc(N3CCC3)c2)n1` (stereo not drawn) [Example 66, 1,1,1,3,3,3-Hexafluoropropan-2-yl 5-([3-[3-(azetidin-1-yl)phenyl]-1-ethyl-1H-pyrazol-4-yl]methyl)-octahydropyrrolo[3,4-c]pyrrole-2-carboxylate], the 50% inhibitory concentration (IC50) on FAAH [1] was 1000 to 10000 nM; at MAGL [2], below 100 nM; on ABHD6 [6], 1000 to 10000 nM. The inhibition at 1 µM on FAAH [3] is below 25%; at ABHD6 [4] it was 25 to 75%; at MAGL [5], above 75%. On Mouse brain MAGL, this compound had an inhibition at 5 mg/kg of at most 25%.
As to `Cn1cc(CN2CC3CN(C(=O)OC(C(F)(F)F)C(F)(F)F)CC3C2)c(-c2ccccc2Cl)n1` (stereo not drawn) [Example 51, 1,1,1,3,3,3-Hexafluoropropan-2-yl 5-[[3-(2-chlorophenyl)-1-methyl-1H-pyrazol-4-yl]methyl]-octahydropyrrolo[3,4-c]pyrrole-2-carboxylate], the IC50 at FAAH [1] is above 10000 nM; at MAGL [2], below 100 nM; at ABHD6 [6], 1000 to 10000 nM. The figures for the inhibition at 1 µM on FAAH [3], at ABHD6 [4] and at MAGL [5] were below 25%, 25 to 75% and above 75%, respectively. Further, the inhibition at 5 mg/kg at Mouse brain MAGL was at most 25%.
Turning to `CS(=O)(=O)N1CC2(CCN(c3ccccc3CN3CC4CN(C(=O)OC(C(F)(F)F)C(F)(F)F)CC4C3)C2)C1` (stereo not drawn) [Example 136, 1,1,1,3,3,3-hexafluoropropan-2-yl 5-[(2-[2-methanesulfonyl-2,6-diazaspiro[3.4]octan-6-yl]phenyl)methyl]-octahydropyrrolo[3,4-c]pyrrole-2-carboxylate], the half-inhibitory concentration (IC50) is 1000 to 10000 nM on FAAH [1], below 100 nM at MAGL [2] and 1000 to 10000 nM at ABHD6 [6]. Also, the inhibition at 1 µM at FAAH [3] was below 25%; on ABHD6 [4], below 25%; on MAGL [5], above 75%. The inhibition at 5 mg/kg on Mouse brain MAGL was at most 25%.
As to `Cc1c(CN2CC3CN(C(=O)OC(C(F)(F)F)C(F)(F)F)CC3C2)cccc1N1CCC(NS(C)(=O)=O)CC1` (stereo not drawn) [Example 149, 1,1,1,3,3,3-hexafluoropropan-2-yl 5-[[3-(4-methanesulfonamidopiperidin-1-yl)-2-methylphenyl]methyl]-octahydropyrrolo[3,4-c]pyrrole-2-carboxylate], the IC50 was 1000 to 10000 nM on FAAH [1], below 100 nM at MAGL [2] and 1000 to 10000 nM at ABHD6 [6]. The inhibition at 1 µM on FAAH [3] is 25 to 75%; on ABHD6 [4], below 25%; at MAGL [5] it was above 75%.
For the compound `Cc1cccc(CN2CC3CN(C(=O)OC(C(F)(F)F)C(F)(F)F)CC3C2)c1N1CCOCC1` (stereo not drawn) [Example 41, 1,1,1,3,3,3-Hexafluoropropan-2-yl 5-[[3-methyl-2-(morpholin-4-yl)phenyl]methyl]-octahydropyrrolo[3,4-c]pyrrole-2-carboxylate], the IC50 at FAAH [1] is 1000 to 10000 nM; on MAGL [2] it was 100 to 1000 nM; at ABHD6 [6], 1000 to 10000 nM. For the same compound, the inhibition at 1 µM at FAAH [3] was below 25%; on ABHD6 [4], below 25%; on MAGL [5], above 75%.
On to `CC1COCCN1c1cc(F)ccc1CN1CC2CN(C(=O)OC(C(F)(F)F)C(F)(F)F)CC2C1` (stereo not drawn) [Example 16, 1,1,1,3,3,3-Hexafluoropropan-2-yl 5-[[4-fluoro-2-(3-methylmorpholin-4-yl)phenyl]methyl]-octahydropyrrolo[3,4-c]pyrrole-2-carboxylate], for which the IC50 on FAAH [1] was 1000 to 10000 nM; at MAGL [2] it was below 100 nM; at ABHD6 [6] it was 1000 to 10000 nM. Besides, the inhibition at 1 µM on FAAH [3] is below 25%; on ABHD6 [4] it was below 25%; on MAGL [5] it was above 75%.
Take `O=C(OC(C(F)(F)F)C(F)(F)F)N1CC2CN(Cc3cccc(-c4ccccc4)c3)CC2C1` (stereo not drawn) [Example 13, 1,1,1,3,3,3-Hexafluoropropan-2-yl 5-[(3-phenylphenyl)methyl]-octahydropyrrolo[3,4-c]pyrrole-2-carboxylate]: the IC50 at FAAH [1] was 100 to 1000 nM; on MAGL [2], below 100 nM; at ABHD6 [6], 1000 to 10000 nM. The figures for the inhibition at 1 µM at FAAH [3], on ABHD6 [4] and at MAGL [5] were 25 to 75%, below 25% and above 75%, respectively.
For `O=C(ON1C(=O)CCC1=O)N1CC2CN(Cc3cccc(-c4ccccc4)c3)CC2C1` (stereo not drawn) [Example 88, 2,5-Dioxopyrrolidin-1-yl 5-[(3-phenylphenyl)methyl]-octahydropyrrolo[3,4-c]pyrrole-2-carboxylate], the half-inhibitory concentration (IC50) is 100 to 1000 nM on FAAH [1], below 100 nM on MAGL [2] and 1000 to 10000 nM at ABHD6 [6]. For the same compound, the results for the inhibition at 1 µM at FAAH [3], at ABHD6 [4] and on MAGL [5] were above 75%, 25 to 75% and above 75%, respectively.
